Key:
[1] = PBS pH 7.4 without TXA, with TXA 0.05 mg/mL or 5 mg/mL, over 25 hours
myofibroblast formation = settings: Ajmal et al. (2003); cited from earlier work
blood clotting = settings: in vitro, 1.2 mg of TXA alone
[2] = time to reach plasma concentrations; settings: in vivo

Which “elution rate from p22-27.5 polymer” value [1] does the source give for `CO[C@H]1/C=C/O[C@@]2(C)Oc3c(C)c(O)c4c(O)c(c(/C=N/N5CCN(C)CC5)c(O)c4c3C2=O)NC(=O)/C(C)=C\C=C\[C@H](C)[C@H](O)[C@@H](C)[C@@H](O)[C@@H](C)[C@H](OC(C)=O)[C@@H]1C` [rifampin] here?
Its value is “not affected by the presence of TXA”.

Which myofibroblast formation (myofibroblast formation) does the source give for `O=S(=O)([O-])CCS.[Na+]` [MESNA, sodium 2-mercaptoethane sulfonate] here?
The myofibroblast formation was “diminish myofibroblast formation”.

Which results are given for `NC[C@H]1CC[C@H](C(=O)O)CC1` [tranexamic acid]?
time to induce blood clotting (blood clotting): about 19 minutes; time to reach plasma concentrations [2]: 5 to 15 min
